Assay results taken from patent US8377913B2, “Vitamin D receptor activators and methods of making” (AbbVie Inc., priority 2007, dated 2013).

How the values were obtained:
[1] = system: Renin mRNA in As4.1 cells; experiment: Renin mRNA in As4.1 cells transfected with pcDNA-hVDR (real-time RT-PCR); assay type: cell-based
Description: As4.1 cells (ATCC, Manassas, Va.) were cultured in Dulbecco's Modified Eagle Medium DMEM (commercially available from Invitrogen, Carlsbad, Calif.) with 10% fetal bovine serum at 37° C. in a humidified 5% CO2-95% air atmosphere. C3;ells were transfected with the pcDNA-hVDR plasmid (provided by Yan Chun Li, University of Chicago) by LIPOFECTAMINE™ 2000 (Invitrogen, Carlsbad, Calif.). siRNA was transfected with the pcDNA-hVDR plasmid by LIPOFECTAMINE™ 2000 according to the manufacturer's protocol. Twenty-four hours after transfection, cells were treated with test agents.
Real-time reverse transcription-PCR was performed with a MyiQ Real-time PCR Detection System (commercially available from BioRad, Hercules, Calif.). […] TaqMan™ probes that were 5′ labeled with the reporter 6-carboxyfluorescein (FAM) and 3′ labeled with the quencher tetramethylrhodamine (TAMRA) were used and the primer and probe sets were obtained from Applied Biosystems (Foster City, Calif.). Temperature conditions consisted of a step of 5 minutes at 95° C., followed by 45 cycles of 60° C. for 1 minute and 95° C. for 15 seconds. Data was collected during each extension phase of the PCR reaction and analyzed with the accompanying software package (BioRad, Hercules, Calif.). Threshold cycles were determined for each gene.

[2] = system: Thrombomodulin mRNA in human coronary artery smooth muscle cells (CASMC); experiment: Thrombomodulin mRNA in CASMC; assay type: cell-based; conditions: Homo sapiens
Description: Primary culture of human coronary artery smooth muscle cells (CASMC) (commercially available from Cambrex, Walkersville, Md.) were grown in smooth muscle growth medium SmGM-2 (commercially available from Lonza Bioscience) containing 5.5 mM glucose, 5% FBS, 50 μg/ml gentamicin, 50 ng/ml amphotericin-B, 5 μg/ml insulin, 2 ng/ml human recombinant fibroblast growth factor (hFGF), and 0.5 ng/ml human recombinant epidermal growth factor (hEGF) at 37° C. in a humidified 5% CO2-95% air atmosphere. Cells were grown to >80% confluence and used within five passages.
Real-time reverse transcription-PCR was performed with a MyiQ Real-Time PCR Detection System (BioRad, Hercules, Calif.). Each sample has a final volume of 25 μl containing 100 ng of cDNA, […] each of the forward and reverse PCR primers and […] of the TaqMan™ probe for the gene of interest (Applied Biosystems, Foster City, Calif.). Temperature conditions consisted of a step of 5 minutes at 95° C., followed by 40 cycles of 60° C. for 1 minute and 95° C. for 15 seconds. Data was collected during each extension phase of the PCR reaction and analyzed with the software package (BioRad, Hercules, Calif.). Threshold cycles were determined for each gene. […]

[3] = system: Human promyelocytic leukemia (HL60) cells; experiment: HL-60 Differentiation; assay type: cell-based; conditions: HL-60, 96 h, four days incubation, NBT, absorbance 570 nm
Description: Human promyelocytic leukemia (HL60) cells were obtained from the American Type Culture Collection (ATCC Cat. # CCL-240, Manassas, Va.). Cells were maintained in RPMI 1640 medium (commercially available from Invitrogen, Carlsbad, Calif.) containing 10% fetal bovine serum (commercially available from Invitrogen, Carlsbad, Calif.) at 37° C. with 5% CO2. Cells were passaged weekly and were not allowed to become >90% confluent. For the assay, cells were plated at 5×10^5 cells per well in 200 uL media. Test compounds were diluted in media in concentrations between 10^−6-10^−10 M and then added to the appropriate wells. Cells were then incubated for four days at 37° C. in 5% CO2 atmosphere. After incubation, media was aspirated from each well and 75 uL of NBT solution (nitroblue tetrazolinium: 200 ng/mL PMA (phorbol 12-myrystate 13-acetate) and 2 mg/ml NBT (nitroblue tetrazolium) in distilled H2O) was added to each well followed by further incubation for 2 hours at 37° C. Following incubation, 150 uL lysis buffer (225 mL dimethylformamide, 67.5 g SDS). PMA stock solution (2 mg/ml in ethanol) was added to each well and the plate was allowed to sit at room temperature for 4 hours. HL-60 cell differentiation was assayed, Effect of each compound on cell growth was examined as a function of time; absorbance in each well was measured at 570 nm.

[4] = system: VDR (VDRE-luciferase-reporter construct); experiment: VDRE Reporter Gene Assay in HEK cells with stable expression of VDR; assay type: cell-based; conditions: Homo sapiens, HEK293, 24 hours
Description: Compound activity was also assessed by looking at a Vitamin D Response Element (VDRE) reporter gene assay, Human Embryonic Kidney cells (HEK cells) with a stable expression of VDR were cultured in 96-well plates at ˜4×10^5 cells/mL (100 μL/well) in DMEM medium containing 10% fetal calf serum. Cells were transfected with 0.2 μg per well of a VDRE-luciferase-reporter construct (from Y. Li, University of Chicago) and then treated with test agents at indicated concentrations for 24 hours. The luciferase activity was then measured following the manufacturer's instructions (Promega, Madison, Wis.).

[5] = system: 5/6 NX rats; experiment: Study 1: serum PTH, ionized Ca++, total Ca++ and phosphorus in the 5/6 NX rat model; assay type: in vivo; conditions: for decrease in PTH: Day 0 vs. Day 13
Description: Study 1: The purpose of the study was to compare the effects of Example 1 on serum PTH, ionized Ca++, total Ca++ and phosphorus in the 5/6 NX rat model.
Methods: 5/6 NX rats were fed a normal diet (Teklad 8640; 0.9% Phos. and 1.1% Ca++) for 4 weeks prior to study at 6 weeks uremia, and were maintained on this diet for the duration of the study. 5/6 NX rats were treated with vehicle and 10, 30 or 100 μg/kg of A-Example 1. Rats were dosed i.p. 3×/week for 2 weeks. Blood was collected on Days 0 and 13 for determination of concentrations of PTH, ionized Ca++, total Ca++ and phosphorus.

[6] = molecular target: T1, recombinant full-length human Vitamin D nuclear receptor (Homo sapiens, UniProt P11473); experiment: biochemical
T1 sequence (P11473 1-427): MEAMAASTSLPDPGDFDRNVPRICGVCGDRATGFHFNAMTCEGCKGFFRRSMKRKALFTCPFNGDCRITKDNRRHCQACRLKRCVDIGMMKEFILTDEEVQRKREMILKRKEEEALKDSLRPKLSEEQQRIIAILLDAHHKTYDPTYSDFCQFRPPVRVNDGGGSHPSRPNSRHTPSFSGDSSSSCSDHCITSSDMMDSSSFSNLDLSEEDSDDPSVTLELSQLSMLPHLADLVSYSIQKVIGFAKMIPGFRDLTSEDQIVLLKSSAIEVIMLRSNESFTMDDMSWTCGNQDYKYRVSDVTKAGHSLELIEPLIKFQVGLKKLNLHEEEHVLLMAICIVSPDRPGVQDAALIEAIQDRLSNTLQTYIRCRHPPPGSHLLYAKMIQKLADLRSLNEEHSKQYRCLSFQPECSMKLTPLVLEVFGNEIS
Description: In vitro binding of selected compounds according to the invention to VDR was assessed using the following procedure. […] Each test compound was then serially diluted in binding buffer to concentrations appropriate for the assay, as one skilled in the art can determine.
Final assay volume was 100 uL. The filled plate was incubated overnight at 4° C. with gentle shaking. After 18 hours of incubation, 20 uL of wheat germ agglutinin-coated yttrium silicate scintillation proximity assay (SPA) beads (commercially available from Amersham Biosciences, Piscataway, N.J.; Part # RPNQ0270) resuspended in binding buffer was added to each well (200 ug/well) and the plate was incubated at room temperature for 2 hours with gentle shaking.

[7] = 5/6 NX rats, 100 μg/kg i.p. 3×/week for 2 weeks

- IC50 [1]: 0.3 nM
- EC50 [2]: 2.2 nM
- EC50 [3]: 1.9 nM
- EC50 [4]: 0.4 nM
- ionized Ca++ [5, 7]: elevated
- total Ca++ [5, 7]: elevated
- serum phosphorus levels ([5]; 5/6 NX rats, 10, 30 or 100 μg/kg i.p. 3×/week for 2 weeks): did not affect
- IC50 [6]: 496 nM
SMILES: C=C1[C@H](O)CC(=C/C=C2\CCC[C@]3(C)[C@@H]([C@H](C)COC(=O)C(C)(C)C)CC[C@@H]23)C[C@H]1O [Example 1, (2S)-2-[(1R,3R,7E, 17β)-1,3-dihydroxy-2-methylene-9,10-secoestra-5,7-dien-17-yl]propyl pivalate]
- decrease in PTH ([5]; 5/6 NX rats, 30 μg/kg i.p. 3×/week for 2 weeks): 26%
- decrease in PTH [5, 7]: 78%
